In ChEMBL document CHEMBL1148137, “Multibranched polyunsaturated and very-long-chain fatty acids of freshwater Israeli sponges” (J Nat Prod, 2002):

Columns and labels:
Escherichia coli = test: Antibacterial activity against Escherichia coli at 50 ug/disk; type: functional
Artemia salina = test: Toxicity to Artemia salina assessed as mortality after 24 hrs; type: organism-based; settings: in vivo
Saccharomyces cerevisiae = test: Antifungal activity against Saccharomyces cerevisiae at 50 ug/disk; type: functional
Staphylococcus aureus = test: Antibacterial activity against Staphylococcus aureus CCM 2551 at 50 ug/disk; type: functional; set-up: unit not given here; settings: read-out: Diameter of inhibition zone
Bacillus subtilis = test: Antibacterial activity against Bacillus subtilis CCM 2216 at 50 ug/disk; type: functional; set-up: unit not given here
[1] = read-out: Diameter of inhibition zone

Row | SMILES | zone of inhibition at 50 µg/disc (Escherichia coli; [1]) | MLD (Artemia salina) | zone of inhibition at 50 µg/disc (Saccharomyces cerevisiae; [1]) | zone of inhibition at 50 µg/disc (Staphylococcus aureus) | zone of inhibition at 50 µg/disc (Bacillus subtilis; [1]) | zone of inhibition at 50 µg/disc (Bacillus subtilis; read-out: IZ) | zone of inhibition at 50 µg/disc (Escherichia coli; read-out: IZ) | zone of inhibition at 50 µg/disc (Saccharomyces cerevisiae; read-out: IZ)
1 | CC[C@H](C)/C=C/C(C)=C/C[C@H](C)/C=C/C=C/C(=O)OC | 0 mm | 10.2 µg/mL | 0 mm | 49 | – | – | – | –
2 | CCCCCCCCCC[C@H](C)/C=C(C)/C=C/C(=O)OC | 0 mm | 4.9 µg/mL | 0 mm | 56.7 | 81 | – | – | –
3 | C=C/C(C)=C/C[C@H](C)/C=C(C)/C=C(C)\C=C\C=C\C(=O)OC | 0 mm | 1.1 µg/mL | 0 mm | 62.4 | 89 | – | – | –
4 | C=C(CC/C=C/C=C/CC(C)C)C[C@@H](C)C/C(C)=C/C(=O)OC | 0 mm | 1.7 µg/mL | 0 mm | 84.1 | 74.9 | – | – | –
5 | CC[C@@H](C)CC/C=C/C(C)=C/[C@H](C)C/C=C/C=C/C(=O)OC | – | 5 µg/mL | – | – | – | 78.1 | 0 mm | 0 mm
